Values of other authors, collected in patent US4337247A, “Tetrapeptidesemicarbazide derivatives and their production and use” (Takeda Chemical Industries, Ltd., priority 1979, dated 1982).

Conditions: for morphinomimetic activity: direct intracerebral administration; for analgesic effect: intravenous route

Row | Substance | morphinomimetic activity | analgesic effect
1 | H-Tyr-Gly-Gly-Phe-Leu-OH | show morphinomimetic activity | do not produce analgesic effects
2 | H-Tyr-Gly-Gly-Phe-Met-OH (H-YGGFM-OH) [enkephalin, pentapeptide isolated from the pig brain] | show morphinomimetic activity | do not produce analgesic effects
3 | β-endorphine (YGGFMTSEKSQTPLVTLFKNAIIKNAYKKGE; Beta-endorphin; UniProt P01189 237-267, looked up) [polypeptide consisting of 31 amino acids, considered to be derived from the carboxy-terminal of β-lipotrophine] |  | displays an overt analgesic action
